Where a name gives a salt, the structure may show the parent alone. Read-outs that look alike come from different tables or passages of the source.
How the values were obtained:
[1] = test system: HeLa-ACE2 cells; assay: Uninfected HeLa-ACE2 24 h live/dead cytotoxicity counter screen; format: cell-based, human
[2] = as above; format: cell-based, human; settings: human, uninfected HeLa-ACE2 cells
[3] = test system: Calu-3 cells; settings: for Calu-3 uninfected cytotoxicity Sinf Average: human
[4] = test system: Calu-3 cells; assay: cells; settings: Homo sapiens; for Emax: Calu-3, 48 h, read-out: Calu-3 cell count Sinf Average; for EC50: Calu-3, read-out: Calu-3 cell count EC50 GeoMean
[5] = test system: SARS-CoV-2; assay: microbe, parasite or virus in culture; format: cell-based; settings: for Emax: Severe acute respiratory syndrome coronavirus 2, HeLa-ACE2, 10 h, read-out: HeLa-ACE2 TOA CoV-2 Sinf Average; for EC50: read-out: HeLa-ACE2 TOA CoV-2 EC50 GeoMean
[6] = test system: SARS-CoV-2; assay: microbe, parasite or virus in culture; format: cell-based
[7] = test system: HeLa-ACE2 cells; assay: cells; settings: Homo sapiens; for EC50: HeLa-ACE2, read-out: HeLa-ACE2 cell count EC50 GeoMean; for Emax: HeLa-ACE2, 24 h, read-out: HeLa-ACE2 cell count Sinf Average
[8] = test system: HEK293T; settings: human
[9] = test system: HepG2; settings: human
[10] = test system: SARS-CoV-2; assay: microbe, parasite or virus in culture; format: cell-based; settings: for Emax: Severe acute respiratory syndrome coronavirus 2, Calu-3, 48 h, read-out: Calu-3 CoV-2 Sinf Average
[11] = test system: HeLa-ACE2 cells; assay: Total cell count in the HeLa-ACE2 TOA assay; format: cell-based; settings: Homo sapiens; for Emax: HeLa-ACE2, 10 h, curve plateau at infinite concentration, read-out: HeLa-ACE2 TOA cell count Sinf Average; for EC50: HeLa-ACE2, read-out: HeLa-ACE2 TOA cell count EC50 GeoMean
Excerpt: Supplement 41467_2021_23328_MOESM3_ESM.xlsx, sheet "Table S1" | column: HeLa-ACE2 TOA cell count

[12] = in vitro; settings: human
[13] = test system: HepG2; assay: HepG2 72 h CellTiter-Glo cytotoxicity; settings: 72 h
[14] = test system: HEK293T; assay: HEK293T 72 h CellTiter-Glo cytotoxicity; settings: 72 h
[15] = test system: SARS-CoV-2; format: cell-based; settings: combination with remdesivir, synergy score δ
[16] = test system: Calu-3 cells; assay: Uninfected Calu-3 48 h Cell-Titer Glo cytotoxicity counter screen
[17] = HEK293T 72 h CellTiter-Glo cytotoxicity; settings: human, HEK293T cells
[18] = HepG2 72 h CellTiter-Glo cytotoxicity; settings: human, HepG2 cells
[19] = Uninfected Calu-3 48 h Cell-Titer Glo cytotoxicity counter screen; settings: human, uninfected Calu-3 cells
[20] = curve plateau at infinite concentration
[21] = read-out: HeLa-ACE2 uninfected cytotoxicity CC50 GeoMean
[22] = Severe acute respiratory syndrome coronavirus 2, HeLa-ACE2
[23] = Severe acute respiratory syndrome coronavirus 2, HeLa-ACE2, 24 h, curve plateau at infinite concentration; read-out: HeLa-ACE2 CoV-2 Sinf Average
[24] = Severe acute respiratory syndrome coronavirus 2, Calu-3, detail column, read-out: Calu-3 CoV-2 EC50 GeoMean
[25] = Calu-3 uninfected cytotoxicity CC50 GeoMean
[26] = Severe acute respiratory syndrome coronavirus 2, HeLa-ACE2, detail column; read-out: HeLa-ACE2 CoV-2 EC50 GeoMean
[27] = Severe acute respiratory syndrome coronavirus 2, HeLa-ACE2, detail column
[28] = Severe acute respiratory syndrome coronavirus 2, HeLa-ACE2; read-out: HeLa-ACE2 CoV-2 EC50 GeoMean
[29] = Severe acute respiratory syndrome coronavirus 2, Calu-3, read-out: Calu-3 CoV-2 EC50 GeoMean

Nc1ncnc2c1nc(Cl)n2[C@@H]1O[C@H](CO)[C@@H](O)[C@H]1O [8-Chloroadenosine]
HeLa-ACE2 uninfected cytotoxicity Sinf Average [1, 20]: -87%
CC50 at 24 h ([2]; reconfirmed hits, read-out: HeLa-ACE2 Uninf. cells CC50): > 11.9 µM
CC50 at 24 h [2, 21]: > 11.9 µM
uninfected Calu-3 CC50 [3]: > 27.747 ×÷ 1.135 (n=3) μM
Calu-3 uninfected cytotoxicity Sinf Average ([3]; 48 h): -92%
Emax [4]: 99%
EC50 [4]: > 9.98 µM
Emax [5, 20]: 98%
EC50 [5, 22]: 1.07 µM
Emax [6, 23]: 98%
EC50 ([6]; Severe acute respiratory syndrome coronavirus 2, HeLa-ACE2, reconfirmed hits; read-out: HeLa-ACE2 SARS-CoV-2 EC50): 0.927 µM
EC50 [7]: > 9.59 µM
HEK293T 72-hour cytotoxicty Sinf Average ([8]; 72 h): -98%
HepG2 72-hour cytotoxicity Sinf Average ([9]; 72 h): -69%
Emax [10, 20]: 96%
EC50 [10, 24]: 4.94 µM
EC50 ([10]; Severe acute respiratory syndrome coronavirus 2, Calu-3, reconfirmed hits, read-out: Calu-3 SARS-CoV-2 EC50): 4.94 µM
Emax [11]: 100%
EC50 [11]: > 9.59 µM
CC50 at 48 h ([12]; Calu-3 Uninf. cells CC50 (µM)): > 27.8 µM
CC50 at 48 h [12, 25]: > 27.7 µM

C=CC(=O)Nc1cc(Nc2nccc(-c3cn(C)c4ccccc34)n2)c(OC)cc1N(C)CCN(C)C [AZD-9291/Osimertinib]
HeLa-ACE2 uninfected cytotoxicity Sinf Average [1, 20]: -100%
CC50 at 24 h [2, 21]: > 18.1 µM
HepG2 72-hour cytotoxicity Sinf Average [13]: -107%
HEK293T 72-hour cytotoxicty Sinf Average [14]: -103%
Emax [4]: -100%
EC50 [4]: > 9.98 µM
Emax [5, 20]: 100%
EC50 [5, 22]: > 7.85 µM
Emax [6, 23]: 100%
EC50 [6, 26]: 0.962 µM
Emax [7]: 98%
EC50 [7]: > 4.23 µM
HeLa-ACE2 synergy score with remdesivi [δ] [15]: -0.722
Emax [10, 20]: 100%
EC50 [10, 24]: > 1.59 µM
Calu-3 uninfected cytotoxicity Sinf Average [16, 20]: -89%
Emax [11]: -100%
EC50 [11]: > 9.6 µM
CC50 [12, 25]: 1.69 µM

CCCCc1oc2ccccc2c1C(=O)c1cc(I)c(OCCN(CC)CC)c(I)c1 [Amiodarone]
HeLa-ACE2 uninfected cytotoxicity Sinf Average ([1]; human, uninfected HeLa-ACE2 cells, 24 h): -101%
HepG2 72-hour cytotoxicity Sinf Average [13]: -100%
CC50 at 72 h [17]: 10.9 µM
HEK293T 72-hour cytotoxicty Sinf Average [14]: -100%
Emax [4]: 100%
Emax [5]: 100%
Emax ([6]; Severe acute respiratory syndrome coronavirus 2, HeLa-ACE2, 24 h, read-out: HeLa-ACE2 CoV-2 Sinf Average): 96%
Emax [7]: 100%
Emax [10]: 100%

CN1CC2c3ccccc3Oc3ccc(Cl)cc3C2C1 (stereo not drawn) [Asenapine maleate]
HeLa-ACE2 uninfected cytotoxicity Sinf Average [1, 20]: -100%
CC50 at 24 h ([2]; detail block, read-out: HeLa-ACE2 uninfected cytotoxicity CC50 GeoMean): > 35.6 µM
CC50 at 72 h [18]: 19.9 µM
HepG2 72-hour cytotoxicity Sinf Average [13]: -100%
CC50 at 72 h [17]: 23.3 µM
HEK293T 72-hour cytotoxicty Sinf Average [14]: -100%
Emax [5, 20]: 100%
Emax [6, 23]: 97%
Emax [10, 20]: 100%
CC50 at 48 h [19]: > 29.9 µM
Calu-3 uninfected cytotoxicity Sinf Average [16, 20]: -100%

COc1ccc2c(c1)[C@]1(C[C@H]1c1ccc3c(/C=C/c4ccc(CN5C[C@@H](C)O[C@@H](C)C5)cc4)n[nH]c3c1)C(=O)N2 [CFI-400945]
HeLa-ACE2 uninfected cytotoxicity Sinf Average [1, 20]: -100%
CC50 at 24 h [2, 21]: 7.18 µM
uninfected Calu-3 CC50 [3]: > 19.756 ×÷ 1.816 (n=3) μM
Calu-3 uninfected cytotoxicity Sinf Average ([3]; 48 h): -98%
Emax [4]: 100%
EC50 [4]: 4.75 µM
Emax [5, 20]: 100%
EC50 [5, 22]: 4.57 µM
Emax [6, 23]: 100%
EC50 [6, 26]: > 7 µM
Emax [7]: 53%
EC50 [7]: > 0.117 µM
HEK293T 72-hour cytotoxicty Sinf Average ([8]; 72 h): -95%
HepG2 72-hour cytotoxicity Sinf Average ([9]; 72 h): -100%
Emax [10, 20]: 100%
EC50 [10, 24]: 3.36 µM
Emax [11]: 100%
EC50 [11]: > 9.59 µM
CC50 at 48 h [12, 25]: > 19.8 µM

C[C@H]1O[C@@H](O[C@H]2[C@@H](O)C[C@H](O[C@H]3[C@@H](O)C[C@H](O[C@H]4CC[C@@]5(C)[C@H](CC[C@@H]6[C@@H]5C[C@@H](O)[C@]5(C)[C@@H](C7=CC(=O)OC7)CC[C@]65O)C4)O[C@@H]3C)O[C@@H]2C)C[C@H](O)[C@@H]1O [Digoxin]
HeLa-ACE2 uninfected cytotoxicity Sinf Average [1, 20]: -98%
CC50 at 24 h [2, 21]: 0.12 µM
Calu-3 uninfected cytotoxicity Sinf Average [3]: -38%
Emax [4]: -100%
EC50 [4]: > 9.95 µM
Emax [5, 20]: 89%
EC50 [5, 27]: 0.792 µM
Emax [6, 23]: 100%
EC50 [6, 28]: 0.166 µM
Emax [7]: 101%
EC50 [7]: 0.325 µM
HEK293T 72-hour cytotoxicty Sinf Average [8]: -101%
HepG2 72-hour cytotoxicity Sinf Average [9]: -102%
Emax [10, 20]: 83%
EC50 [10, 29]: 0.169 µM
EC50 [11]: > 9.59 µM
CC50 [12, 25]: > 5.04 µM

Cc1ccc(NC(=O)c2ccc(CN3CCN(C)CC3)cc2)cc1Nc1nccc(-c2cccnc2)n1 [Imatinib mesylate]
CC50 at 72 h [18]: 12.9 µM
HepG2 72-hour cytotoxicity Sinf Average [13]: -100%
CC50 at 72 h [17]: 15.2 µM
HEK293T 72-hour cytotoxicty Sinf Average [14]: -100%
Emax [4]: 100%
Emax ([6]; Severe acute respiratory syndrome coronavirus 2, HeLa-ACE2, 24 h; read-out: HeLa-ACE2 CoV-2 Sinf Average): 100%
Emax [10]: 100%
CC50 at 48 h [19, 25]: > 29.9 µM
Calu-3 uninfected cytotoxicity Sinf Average ([16]; human, uninfected Calu-3 cells, 48 h): -100%

COc1ccc(C[C@H](N)C(=O)N[C@H]2[C@@H](O)[C@H](n3cnc4c(N(C)C)ncnc43)O[C@@H]2CO)cc1 [Puromycin - cytotoxicity control]
HeLa-ACE2 uninfected cytotoxicity Sinf Average [1, 20]: -100%
CC50 at 24 h [2, 21]: 0.658 µM
CC50 at 72 h [18]: 1.08 µM
HepG2 72-hour cytotoxicity Sinf Average [13]: -101%
CC50 at 72 h [17]: 0.829 µM
HEK293T 72-hour cytotoxicty Sinf Average [14]: -101%
Emax [4]: -100%
EC50 [4]: > 10 µM
Emax [5, 20]: 103%
EC50 [5, 22]: 0.316 µM
Emax [6, 23]: 100%
EC50 [6, 26]: 0.48 µM
Emax [7]: 101%
EC50 [7]: 1.55 µM
Emax [10, 20]: 97%
EC50 [10, 24]: 2.74 µM
CC50 at 48 h [19, 25]: 3.95 µM
Calu-3 uninfected cytotoxicity Sinf Average [16, 20]: -101%
EC50 [11]: > 9.62 µM

CCC(CC)COC(=O)[C@H](C)NP(=O)(OC[C@H]1O[C@@](C#N)(c2ccc3c(N)ncnn23)[C@H](O)[C@@H]1O)Oc1ccccc1 (stereo partly drawn) [Remdesivir - control]
HeLa-ACE2 uninfected cytotoxicity Sinf Average [1, 20]: -98%
CC50 at 24 h [2, 21]: > 9.67 µM
HepG2 72-hour cytotoxicity Sinf Average [13]: -100%
HEK293T 72-hour cytotoxicty Sinf Average [14]: -95%
Emax [4]: 101%
EC50 [4]: 0.537 µM
Emax [5, 20]: 101%
EC50 [5, 22]: 0.77 µM
Emax [6, 23]: 100%
EC50 [6, 26]: 0.123 µM
Emax [7]: -42%
EC50 [7]: > 1.2 µM
Emax [10, 20]: 100%
EC50 [10, 24]: 0.444 µM
Calu-3 uninfected cytotoxicity Sinf Average [16, 20]: -100%
Emax [11]: 100%
EC50 [11]: > 2.4 µM
CC50 [12, 25]: > 30 µM

CNC(=O)c1cc(Oc2ccc(NC(=O)Nc3ccc(Cl)c(C(F)(F)F)c3)cc2)ccn1 [Sorafenib]
HeLa-ACE2 uninfected cytotoxicity Sinf Average [1, 20]: -99%
CC50 at 24 h [2, 21]: > 8.65 µM
CC50 at 72 h [18]: 7.15 µM
HepG2 72-hour cytotoxicity Sinf Average [13]: -101%
CC50 at 72 h [17]: 3.34 µM
HEK293T 72-hour cytotoxicty Sinf Average [14]: -107%
Emax [4]: 100%
EC50 [4]: > 9.36 µM
Emax [5, 20]: 99%
EC50 [5, 27]: 3.51 µM
Emax [6, 23]: 100%
EC50 [6, 28]: > 5.67 µM
Emax [7]: 100%
EC50 [7]: > 8.31 µM
Emax [10, 20]: 100%
EC50 [10, 29]: > 5.2 µM
CC50 at 48 h [19]: 5.3 µM
Calu-3 uninfected cytotoxicity Sinf Average [16, 20]: -88%
Emax [11]: 100%
EC50 [11]: > 9.61 µM
